From PubChem BioAssay (NCI) come the findings set out here.

Common to all, as to assay: growth of human tumour cells (NCI), 48 h
In experiment [1] the test system is ACHN renal.
For experiment [2], the system named is BT-549 breast.
The subject of experiment [3] is CAKI-1 renal.
The test system of experiment [4] is COLO 205 colon.
Experiment [5] has as its system HCC-2998 colon.
Experiment [6] relates to IGROV1 ovarian.
For experiment [7], the system named is NCI-H460 lung.
Experiment [8] has as its system SNB-75 CNS.
Experiment [9] deals with UACC-257 melanoma.
Experiment [10] relates to RXF 393 renal.
Experiment [11] deals with SF-268 CNS.

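Method: 48-hour compound exposure of cells in 96-well plates, five concentrations, linear interpolation of endpoints. TGI marks complete inhibition of growth.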

Consider `CCN(CC)P1(=S)Oc2ccc3ccccc3c2-c2c(ccc3ccccc23)O1`, for which the TGI in experiment [1], in [2], in experiment [3], in experiment [4], in [5] and in [6] was greater than 100 µM throughout. Besides, the TGI in [7], in [8] and in experiment [9] was greater than 100 µM throughout.
Consider `CC(=O)c1nc2ccccc2n1CC(=O)c1ccc([N+](=O)[O-])cc1`, for which the TGI was 52.6 µM in experiment [2]; 53.7 µM in experiment [3]; greater than 100 µM in [4]; 14.5 µM in [6]; 68.6 µM in experiment [7]; greater than 100 µM in [10]. Also, the TGI in experiment [11], in [8] and in experiment [9] was greater than 100 µM in each case.
As to `COc1ccc(N=NN2CCCC2)cc1`, the TGI in experiment [1] is 29.9 µM; in experiment [2] it was 60.6 µM; in experiment [3], 35.1 µM; in experiment [4], 35.5 µM; in experiment [5] it was greater than 100 µM; in experiment [6], 41 µM. The TGI in experiment [7] is greater than 100 µM; in experiment [10], 64.1 µM; in [11] it was greater than 100 µM; in experiment [9], greater than 100 µM.
With `CC(C)(C)NCC(O)COc1cccc2[nH]c(C#N)cc12` (configuration not stated), the TGI in [1], in experiment [2], in experiment [3], in experiment [4], in [6] and in [11] was greater than 100 µM throughout.
In the case of `COc1cccc(-n2nnc3c(N)nc(N)nc32)c1`, the TGI in experiment [1], in [2], in [3], in experiment [4], in experiment [6] and in experiment [7] was greater than 100 µM throughout. Further, the TGI in [11], in experiment [8] and in experiment [9] was greater than 100 µM each time.
Consider `CCOC(=O)c1ccc(N=C/C=C(\Nc2ccc(C(=O)OCC)cc2)c2ccc3ccccc3c2)cc1`, for which the TGI in experiment [1] is greater than 100 µM; in experiment [2] it was 42.4 µM; in experiment [3], 83.8 µM; in [4], 32.6 µM; in experiment [6], greater than 100 µM; in experiment [7], greater than 100 µM. Further, the TGI in [10] was 57.3 µM; in [11] it was greater than 100 µM; in experiment [8], greater than 100 µM; in experiment [9], 92.3 µM.
In the case of `CCCCCCc1cc(C=O)sc1-c1ccc(-c2sc(-c3ccc(-c4ccc(-c5cc(CCCCCC)c(-c6ccc(-c7sc(C=O)cc7CCCCCC)s6)s5)s4)s3)cc2CCCCCC)s1`, the TGI in experiment [1], in experiment [2], in experiment [3], in experiment [4], in experiment [5] and in experiment [6] was greater than 100 µM each time. Also, the TGI in [7], in experiment [10], in experiment [11] and in experiment [9] was greater than 100 µM throughout.
Regarding `NS(=O)(=O)c1ccc(CNC(=S)NC(=O)Nc2ccc(Cl)c(Cl)c2)cc1`, the TGI in experiment [1] is 46 µM; in experiment [2], 34.7 µM; in experiment [4] it was 77.4 µM; in experiment [6] it was 50.5 µM; in [7], 94 µM; in [10], 84.7 µM. In addition, the results for the TGI in experiment [11], in experiment [8] and in experiment [9] were 52.8 µM, 60.2 µM and greater than 100 µM, respectively.
On to `COc1ccc(N(C(=O)OC(C)(C)C)[C@@H]2C(C)=C[C@H]([S@@](=O)c3ccc(C)cc3)[C@@H]3C(=O)N(C)C(=O)[C@@H]32)cc1`, for which the TGI in [1] was 43.8 µM; in experiment [2], 33.9 µM; in experiment [3], 52.6 µM; in [4] it was 31 µM; in [6] it was 23.1 µM; in experiment [7], greater than 100 µM. Moreover, the TGI in [10] was found to be 30.4 µM; in experiment [11], 33.9 µM; in experiment [8], 21.4 µM; in experiment [9] it was 43.8 µM.
As for `Fc1ccc(C(=NCc2ccccc2)N2CCOCC2)cc1`, the TGI in experiment [1], in experiment [2], in experiment [3], in experiment [4], in experiment [6] and in [7] was greater than 100 µM throughout. In addition, the TGI in [10], in [11], in experiment [8] and in [9] was greater than 100 µM in each case.
As for `O=c1[nH]c2ccc(CC(=S)N3CCN(c4ccccc4)CC3)cc2s1`, the TGI in experiment [1] was greater than 100 µM; in [2] it was greater than 100 µM; in [3], greater than 100 µM; in experiment [4] it was greater than 100 µM; in experiment [6], greater than 100 µM; in [7] it was 56.1 µM. Also, the figures for the TGI in experiment [10], in [11] and in experiment [9] were 46.4 µM, greater than 100 µM and greater than 100 µM, respectively.
As for `COc1cc(O)c(C(=O)/C=C/c2ccc(O)cc2)cc1Oc1ccc(C(=O)/C=C/c2ccc(O)cc2)c(O)c1`, the TGI in experiment [1] was found to be 5.02 µM; in experiment [2] it was 9.19 µM; in experiment [3], 9.69 µM; in experiment [4], 3.58 µM; in experiment [6] it was 3.9 µM; in experiment [7], 12.1 µM. For the same compound, the TGI in [10] turned out to be 6.1 µM; in experiment [11] it was 14.2 µM; in experiment [8], 7.5 µM; in experiment [9], 21.7 µM.
Consider `CC1(C)COC(c2cccc(C3=NC(C)(C)CO3)c2)=N1`, for which the TGI in experiment [1], in [2], in [3], in experiment [4], in experiment [5] and in [6] was greater than 100 µM throughout. The TGI in experiment [7], in [11] and in [9] was greater than 100 µM each time.
Regarding `CCOC(=O)c1c(OCC)[nH]c(=O)c(C(c2ccc(F)cc2)c2c(O)c(C(=O)OCC)c(OCC)[nH]c2=O)c1O`, the TGI in experiment [1] was 31.7 µM; in [2], 23.6 µM; in experiment [3] it was 42.4 µM; in [4], 79.8 µM; in [5], 39 µM; in experiment [6], 30.3 µM. Moreover, the TGI amounted to 36.5 µM in [7], 23 µM in experiment [10], 33.6 µM in experiment [11] and 37.3 µM in experiment [9].
Take `CCC1OC2C(CC=C(C)C)=C3OC(C)(O)C(C)(CC)C(O)C3=C3OC(=O)C=C1C32` (configuration not stated): the TGI in experiment [1] is greater than 100 µM; in experiment [2] it was 71 µM; in experiment [3] it was greater than 100 µM; in experiment [4], greater than 100 µM; in [5], greater than 100 µM; in [7] it was 70.5 µM. Besides, the TGI in experiment [11] and in experiment [9] was greater than 100 µM each time.
In the case of `NC12c3c4cccc3Oc3cccc(c31)Oc1cccc(c12)O4`, the TGI in [1], in experiment [2], in experiment [3], in experiment [4], in experiment [6] and in [7] was greater than 50 µM in each case. Moreover, the TGI in [10], in experiment [11], in experiment [8] and in experiment [9] was greater than 50 µM each time.
With `CCOC(=O)Nc1ccc(S(=O)(=O)Nc2ccc(Br)cc2)cc1`, the TGI is 85.2 µM in experiment [1]; greater than 100 µM in experiment [2]; greater than 100 µM in [3]; 30.4 µM in experiment [4]; greater than 100 µM in experiment [6]; 72 µM in experiment [7]. Besides, the TGI in experiment [10], in experiment [11] and in [9] was greater than 100 µM throughout.
Take `CCc1nnc2sc(-c3ccc(-c4ccc(Cl)cc4Cl)o3)nn12`: the TGI in experiment [1], in experiment [2], in experiment [3], in [4], in experiment [6] and in [7] was greater than 100 µM throughout. Besides, the TGI was 22.3 µM in experiment [10], greater than 100 µM in [11], 56 µM in [8] and greater than 100 µM in experiment [9].
In the case of `N#CC(C(=O)c1ccccc1F)c1nc2cc(C(F)(F)F)ccc2s1` (configuration not stated), the TGI in [1] was 94.6 µM; in experiment [2], 69.4 µM; in [3] it was greater than 100 µM; in [4], 49.5 µM; in experiment [6], greater than 100 µM; in experiment [7], greater than 100 µM. In addition, the TGI in experiment [10], in [11], in experiment [8] and in [9] was greater than 100 µM in each case.
`COc1ccc2c(c1)CC[C@@H]1C2CC[C@]2(C)OC(=O)CCC12` (some centres not stated): the TGI in experiment [1] is greater than 100 µM; in experiment [2], 23.6 µM; in [3] it was greater than 100 µM; in experiment [4] it was greater than 100 µM; in [5] it was greater than 100 µM; in experiment [6], greater than 100 µM. Further, the TGI in [7] is greater than 100 µM; in experiment [10], 29 µM; in [11], 26.6 µM; in [9], 32.1 µM.
In the case of `CC(=O)c1ccc2c(c1)CC1(C2)Cc2cc3c(cc2C1)C(=O)CC3` (configuration not stated), the TGI amounted to 35.2 µM in [1]; 33.5 µM in experiment [3]; 1.66 µM in experiment [4]; 7.48 µM in experiment [5]; 39.2 µM in experiment [6]; 12.2 µM in [7]. Also, the TGI in experiment [10] was 17.7 µM; in experiment [11] it was greater than 100 µM; in experiment [8] it was greater than 100 µM; in experiment [9], 29.1 µM.
